Test results taken from PubChem BioAssay (NCI).
“And” between values parts separate entries of the source, which are not always exact repeats. Equal entries are not always repeated.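 All cell lines were grown in 96-well plates and treated with compound for 48 hours. The concentration for 50% growth inhibition is given as GI50. The concentration for full growth arrest is given as TGI.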

Assays:
Test in all cases: NCI anticancer screen, dose series, 48 h
MDA-MB-231 breast = tested on: MDA-MB-231 breast
ACHN renal = tested on: ACHN renal
UACC-62 melanoma = tested on: UACC-62 melanoma
SNB-19 CNS = tested on: SNB-19 CNS
MALME-3M melanoma = tested on: MALME-3M melanoma
A498 renal = tested on: A498 renal
RXF 393 renal = tested on: RXF 393 renal
MDA-MB-435 = tested on: MDA-MB-435
T-47D breast = tested on: T-47D breast
KM12 colon = tested on: KM12 colon
SK-MEL-2 melanoma = tested on: SK-MEL-2 melanoma
DU-145 prostate = tested on: DU-145 prostate
NCI/ADR-RES ovarian = tested on: NCI/ADR-RES ovarian
IGROV1 ovarian = tested on: IGROV1 ovarian
SK-OV-3 ovarian = tested on: SK-OV-3 ovarian
HL-60(TB) leukemia = tested on: HL-60(TB) leukemia
MCF7 breast = tested on: MCF7 breast
OVCAR-4 ovarian = tested on: OVCAR-4 ovarian
NCI-H522 lung = tested on: NCI-H522 lung
SK-MEL-28 melanoma = tested on: SK-MEL-28 melanoma
HS 578T breast = tested on: HS 578T breast
HCC-2998 colon = tested on: HCC-2998 colon
MDA-N = tested on: MDA-N
NCI-H226 lung = tested on: NCI-H226 lung
SF-268 CNS = tested on: SF-268 CNS
HCT-116 colon = tested on: HCT-116 colon
COLO 205 colon = tested on: COLO 205 colon
OVCAR-3 ovarian = tested on: OVCAR-3 ovarian
SK-MEL-5 melanoma = tested on: SK-MEL-5 melanoma
HT29 colon = tested on: HT29 colon
CCRF-CEM leukemia = tested on: CCRF-CEM leukemia
K-562 leukemia = tested on: K-562 leukemia
HCT-15 colon = tested on: HCT-15 colon
PC-3 prostate = tested on: PC-3 prostate
SNB-75 CNS = tested on: SNB-75 CNS
A549 NSCLC = tested on: A549 NSCLC
MOLT-4 leukemia = tested on: MOLT-4 leukemia
SF-295 CNS = tested on: SF-295 CNS
NCI-H460 lung = tested on: NCI-H460 lung
OVCAR-5 ovarian = tested on: OVCAR-5 ovarian
LOX IMVI melanoma = tested on: LOX IMVI melanoma
SW-620 colon = tested on: SW-620 colon
TK-10 renal = tested on: TK-10 renal
OVCAR-8 ovarian = tested on: OVCAR-8 ovarian
CAKI-1 renal = tested on: CAKI-1 renal
HOP-92 NSCLC = tested on: HOP-92 NSCLC
RPMI-8226 leukemia = tested on: RPMI-8226 leukemia
786-0 renal = tested on: 786-0 renal
UACC-257 melanoma = tested on: UACC-257 melanoma
SR leukemia = tested on: SR leukemia
SF-539 CNS = tested on: SF-539 CNS
HOP-62 NSCLC = tested on: HOP-62 NSCLC
NCI-H23 lung = tested on: NCI-H23 lung
BT-549 breast = tested on: BT-549 breast
EKVX NSCLC = tested on: EKVX NSCLC
SN12C renal = tested on: SN12C renal
UO-31 renal = tested on: UO-31 renal
U251 CNS = tested on: U251 CNS
M14 melanoma = tested on: M14 melanoma

COc1cccc2c1cc([N+](=O)[O-])c1c(C(=O)O)cc3c(c12)OCO3
GI50 (MDA-MB-231 breast): 59.9 µM | TGI (MDA-MB-231 breast): > 100 µM | GI50 (ACHN renal): 35.2 µM | TGI (ACHN renal): > 100 µM | TGI (UACC-62 melanoma): > 100 µM | GI50 (SNB-19 CNS): 33.4 µM | TGI (SNB-19 CNS): > 100 µM | GI50 (MALME-3M melanoma): 31.1 µM | TGI (MALME-3M melanoma): > 100 µM | GI50 (A498 renal): 16 µM | TGI (A498 renal): 32.9 µM and 83.4 µM | GI50 (RXF 393 renal): 18 µM | TGI (RXF 393 renal): 40.6 µM and > 56.9 µM | GI50 (MDA-MB-435): 41.5 µM | TGI (MDA-MB-435): > 100 µM | GI50 (T-47D breast): 66.3 µM | TGI (T-47D breast): > 100 µM | GI50 (KM12 colon): 24.5 µM | TGI (KM12 colon): > 87.2 µM | GI50 (SK-MEL-2 melanoma): 22.9 µM | TGI (SK-MEL-2 melanoma): 52.3 µM and > 100 µM | GI50 (DU-145 prostate): 23 µM | TGI (DU-145 prostate): > 82.1 µM and 98.7 µM | GI50 (NCI/ADR-RES ovarian): 42.8 µM | TGI (NCI/ADR-RES ovarian): > 100 µM | GI50 (IGROV1 ovarian): 34.3 µM | TGI (IGROV1 ovarian): > 100 µM | GI50 (SK-OV-3 ovarian): 38.4 µM | TGI (SK-OV-3 ovarian): > 100 µM | GI50 (HL-60(TB) leukemia): 35.1 µM | TGI (HL-60(TB) leukemia): > 100 µM and 51.5 µM | GI50 (MCF7 breast): 30.7 µM | TGI (MCF7 breast): > 100 µM | GI50 (OVCAR-4 ovarian): 83.4 µM | TGI (OVCAR-4 ovarian): > 100 µM | TGI (NCI-H522 lung): > 100 µM | GI50 (SK-MEL-28 melanoma): 46.7 µM | TGI (SK-MEL-28 melanoma): > 100 µM | GI50 (HS 578T breast): 36.3 µM | TGI (HS 578T breast): > 100 µM | GI50 (HCC-2998 colon): 3.91 µM | TGI (HCC-2998 colon): 18.9 µM and 9.62 µM | TGI (MDA-N): > 100 µM | GI50 (NCI-H226 lung): 20 µM | TGI (NCI-H226 lung): 48.4 µM and > 78.3 µM | GI50 (SF-268 CNS): 29 µM | TGI (SF-268 CNS): > 95.2 µM | TGI (HCT-116 colon): > 80.6 µM | GI50 (COLO 205 colon): 1.12 µM | TGI (COLO 205 colon): 2.8 µM and 2.97 µM | GI50 (OVCAR-3 ovarian): 26.1 µM | TGI (OVCAR-3 ovarian): 71.2 µM and > 100 µM | GI50 (SK-MEL-5 melanoma): 22.3 µM | TGI (SK-MEL-5 melanoma): 72.2 µM and > 100 µM | GI50 (HT29 colon): 0.352 µM | TGI (HT29 colon): 2.42 µM and 10.4 µM | GI50 (CCRF-CEM leukemia): 28.2 µM | TGI (CCRF-CEM leukemia): > 100 µM | GI50 (K-562 leukemia): 46.3 µM | TGI (K-562 leukemia): > 100 µM | GI50 (HCT-15 colon): 29.1 µM | TGI (HCT-15 colon): > 100 µM and 38.6 µM | GI50 (PC-3 prostate): 27.8 µM | TGI (PC-3 prostate): > 100 µM | GI50 (SNB-75 CNS): 36 µM | TGI (SNB-75 CNS): > 100 µM | GI50 (A549 NSCLC): 25.8 µM | TGI (A549 NSCLC): > 100 µM | GI50 (MOLT-4 leukemia): 40.9 µM | TGI (MOLT-4 leukemia): > 100 µM | GI50 (SF-295 CNS): 17.4 µM | TGI (SF-295 CNS): > 100 µM | GI50 (NCI-H460 lung): 18.2 µM | TGI (NCI-H460 lung): 63.7 µM and > 100 µM | GI50 (OVCAR-5 ovarian): 22.3 µM | TGI (OVCAR-5 ovarian): > 87.6 µM | GI50 (LOX IMVI melanoma): 26.2 µM | TGI (LOX IMVI melanoma): > 100 µM | GI50 (SW-620 colon): 28.2 µM | TGI (SW-620 colon): > 100 µM | GI50 (TK-10 renal): 8.86 µM | TGI (TK-10 renal): 48.1 µM and > 100 µM | TGI (OVCAR-8 ovarian): > 100 µM | GI50 (CAKI-1 renal): 17.8 µM | TGI (CAKI-1 renal): > 100 µM | GI50 (HOP-92 NSCLC): 23.3 µM | TGI (HOP-92 NSCLC): 88.3 µM and > 100 µM | GI50 (RPMI-8226 leukemia): 37.1 µM | TGI (RPMI-8226 leukemia): > 100 µM | GI50 (786-0 renal): 27.6 µM | TGI (786-0 renal): > 100 µM | GI50 (UACC-257 melanoma): 28.7 µM | TGI (UACC-257 melanoma): > 100 µM | GI50 (SR leukemia): 24.9 µM | TGI (SR leukemia): 75.7 µM and 78.9 µM | TGI (SF-539 CNS): > 75.8 µM | GI50 (HOP-62 NSCLC): 28.4 µM | TGI (HOP-62 NSCLC): 97.8 µM and > 76.6 µM | GI50 (NCI-H23 lung): 29.6 µM | TGI (NCI-H23 lung): > 100 µM | TGI (BT-549 breast): > 100 µM | GI50 (EKVX NSCLC): 26.6 µM | TGI (EKVX NSCLC): 91.7 µM and > 100 µM | GI50 (SN12C renal): 48.7 µM | TGI (SN12C renal): > 100 µM | GI50 (UO-31 renal): 26.2 µM | TGI (UO-31 renal): > 100 µM | GI50 (U251 CNS): 22.9 µM | TGI (U251 CNS): > 100 µM | TGI (M14 melanoma): > 100 µM
